The results in this text go back to patent US20090029956A1, “Substance mixture” (priority 2005, published 2009).

The test system of this series is human ciliary cells. The series is described as follows: Flicker frequency and regeneration capability of human ciliary cells, photometric method. The note with it: for Mean value in percent, 20 min test Solution: (II) / Mean value in percent, 20 min NaCl 0.9% (III): Time I = 100; for Mean value in percent, 20 min NaCl 0.9% (III): Time III (regeneration). The format is cell-based. The protocol:
In comparison with this, the seriously damaging effect of preservatives (on the basis of benzalkonium chloride, BAC) used in conventional cortisone preparations on human ciliary cells was compared. The flicker frequency was determined in a manner known per se by means of a photometric method. Solutions and fluticasone propionate and mixed solutions of fluticasone propionate with N-chlorotaurine sodium (NCT) were prepared in accordance with the following table: Mucous membrane cells were first incubated with an isotonic NaCl solution for 20 minutes (Time I), subsequently incubated with the solutions A, B and C for 20 minutes (Time II) and subsequently incubated in an isotonic solution for a further 20 minutes (Time III). Parallel to this, […] mucous membrane cells were incubated according to the same pattern in comparison with BAC solutions (concentrations of 0.04 mg/ml; 0.1 mg/ml; 0.2 mg/ml; 0.5 mg/ml). The results of the regeneration capability of the ciliary cells after treatment with the solutions A, B and C were compared with the results after the treatment with the BAC solutions.

As for benzalkonium chloride [BAC], the “Mean value in percent, 20 min test Solution: (II)” value worked out at 96.6% (0.04 mg/ml BAC), 91.9% (0.1 mg/ml BAC), 63.5% (0.2 mg/ml BAC) and 0% (0.5 mg/ml BAC). The “Mean value in percent, 20 min NaCl 0.9% (III)” value (0.04 mg/ml BAC) was determined as 100%; the “Mean value in percent, 20 min NaCl 0.9% (III)” value (0.1 mg/ml BAC) turned out to be 93.6%; the “Mean value in percent, 20 min NaCl 0.9% (III)” value (0.2 mg/ml BAC) is 19.4%; the “Mean value in percent, 20 min NaCl 0.9% (III)” value (0.5 mg/ml BAC) stood at 0%. Moreover, the “Recovery of ciliary cells after treatment” value (treatment with more than 0.1 mg/ml benzalkonium chloride) is “remain permanently damaged”.
